The target of assay [1] is Mitogen-activated protein kinase kinase kinase kinase 4 (Homo sapiens) (UniProt O95819). Kind of assay: Inhibition of human HGK catalytic domain expressed in baculovirus assessed as substrate phosphorylation using fluorescence-labelled peptides as substrate at 0.2 uM after 90 mins by microfluidic peptide phosphorylation assay.
Assay [2] addresses T1, Serine/threonine-protein kinase BRSK2 (Homo sapiens) (UniProt Q8IWQ3).
T1 sequence (whole entry): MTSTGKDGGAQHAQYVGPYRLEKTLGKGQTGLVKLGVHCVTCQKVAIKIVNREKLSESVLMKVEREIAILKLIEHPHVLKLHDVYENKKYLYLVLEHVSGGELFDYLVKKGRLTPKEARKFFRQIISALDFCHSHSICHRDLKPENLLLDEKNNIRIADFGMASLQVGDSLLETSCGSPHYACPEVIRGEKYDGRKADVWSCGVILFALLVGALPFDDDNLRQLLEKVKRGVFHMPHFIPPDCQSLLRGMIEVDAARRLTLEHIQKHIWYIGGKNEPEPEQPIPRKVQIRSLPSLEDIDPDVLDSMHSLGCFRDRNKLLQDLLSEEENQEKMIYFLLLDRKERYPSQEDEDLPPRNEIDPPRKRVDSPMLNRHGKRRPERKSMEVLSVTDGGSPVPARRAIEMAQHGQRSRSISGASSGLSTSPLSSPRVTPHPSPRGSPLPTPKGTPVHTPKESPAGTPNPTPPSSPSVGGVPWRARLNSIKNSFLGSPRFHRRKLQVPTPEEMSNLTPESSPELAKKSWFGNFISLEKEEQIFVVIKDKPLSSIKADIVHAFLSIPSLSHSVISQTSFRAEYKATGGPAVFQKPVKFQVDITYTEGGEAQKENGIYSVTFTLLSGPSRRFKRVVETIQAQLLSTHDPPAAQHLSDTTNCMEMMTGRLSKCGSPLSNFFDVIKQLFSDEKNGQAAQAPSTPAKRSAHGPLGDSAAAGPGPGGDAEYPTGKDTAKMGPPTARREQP
Kind of assay: Inhibition of human truncated BRSK2 expressed in baculovirus assessed as substrate phosphorylation using fluorescence-labelled peptides as substrate at 0.2 uM after 90 mins by microfluidic peptide phosphorylation assay.

In assay [3] the target is Insulin receptor (Homo sapiens) (UniProt P06213). Description: Inhibition of human INSR catalytic domain expressed in baculovirus assessed as substrate phosphorylation using fluorescence-labelled peptides as substrate at 420 uM after 90 mins by microfluidic peptide phosphorylation assay.
Assay [4] addresses Insulin-like growth factor 1 receptor (Homo sapiens) (UniProt P08069). Kind of assay: Inhibition of human IGF1R catalytic domain expressed in baculovirus assessed as substrate phosphorylation using fluorescence-labelled peptides as substrate at 420 uM after 90 mins by microfluidic peptide phosphorylation assay.
Assay [5] deals with Glycogen synthase kinase-3 beta (Homo sapiens) (UniProt P49841). Description: Inhibition of human full length GSK-3 beta expressed in baculovirus assessed as substrate phosphorylation using fluorescence-labelled peptides as substrate at 420 uM after 90 mins by microfluidic peptide phosphorylation assay.
Assay [6] has as its target T2, cGMP-dependent protein kinase 1 (Homo sapiens) (UniProt Q13976).
T2 sequence (whole entry): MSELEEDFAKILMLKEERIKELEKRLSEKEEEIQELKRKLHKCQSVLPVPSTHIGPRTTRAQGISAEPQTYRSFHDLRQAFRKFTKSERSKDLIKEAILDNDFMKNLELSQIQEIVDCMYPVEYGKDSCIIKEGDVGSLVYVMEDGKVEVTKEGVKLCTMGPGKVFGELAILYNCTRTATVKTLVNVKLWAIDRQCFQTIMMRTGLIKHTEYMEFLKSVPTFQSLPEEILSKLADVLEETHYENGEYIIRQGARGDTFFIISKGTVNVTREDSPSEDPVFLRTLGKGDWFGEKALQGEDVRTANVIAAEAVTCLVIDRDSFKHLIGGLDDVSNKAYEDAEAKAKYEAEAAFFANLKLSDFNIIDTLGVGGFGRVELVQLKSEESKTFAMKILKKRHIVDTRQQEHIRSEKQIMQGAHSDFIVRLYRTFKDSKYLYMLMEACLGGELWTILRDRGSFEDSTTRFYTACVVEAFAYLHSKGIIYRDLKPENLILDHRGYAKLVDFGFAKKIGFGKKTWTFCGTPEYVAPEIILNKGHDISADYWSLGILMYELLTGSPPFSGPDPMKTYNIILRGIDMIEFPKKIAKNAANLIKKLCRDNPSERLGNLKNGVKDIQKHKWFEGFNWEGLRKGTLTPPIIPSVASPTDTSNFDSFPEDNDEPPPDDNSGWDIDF
Kind of assay: Inhibition of human full length PKG-1a expressed in baculovirus assessed as substrate phosphorylation using fluorescence-labelled peptides as substrate at 8 uM after 90 mins by microfluidic peptide phosphorylation assay.

Assay [7] addresses MAP kinase p38 (Homo sapiens) (UniProt O15264+Q15759+Q16539+P53778). Description: Inhibition of human full length p38 beta2 expressed in Escherichia coli cell assessed as substrate phosphorylation using fluorescence-labelled peptides as substrate at 8 uM after 90 mins by microfluidic peptide phosphorylation assay.
Assay [8] has as its target Dual specificity tyrosine-phosphorylation-regulated kinase 1A (Rattus norvegicus) (UniProt Q63470). Kind of assay: Inhibition of rat full length DYRK1a expressed in Escherichia coli cell assessed as substrate phosphorylation using fluorescence-labelled peptides as substrate at […] after 90 mins by microfluidic peptide phosphorylation assay.
In assay [9] the target is Tyrosine-protein kinase Lyn (Homo sapiens) (UniProt P07948). Kind of assay: Inhibition of human full length LYN expressed in baculovirus assessed as substrate phosphorylation using fluorescence-labelled peptides as substrate at 1000 uM after 90 mins by microfluidic peptide phosphorylation assay.
In assay [10] the target is Serine/threonine-protein kinase MARK2 (Homo sapiens) (UniProt Q7KZI7). Description: Inhibition of human full length MARK2 expressed in baculovirus assessed as substrate phosphorylation using fluorescence-labelled peptides as substrate at 0.06 uM after 90 mins by microfluidic peptide phosphorylation assay.
Chain of Serine/threonine-protein kinase MARK2 (Homo sapiens) (Q7KZI7 whole entry): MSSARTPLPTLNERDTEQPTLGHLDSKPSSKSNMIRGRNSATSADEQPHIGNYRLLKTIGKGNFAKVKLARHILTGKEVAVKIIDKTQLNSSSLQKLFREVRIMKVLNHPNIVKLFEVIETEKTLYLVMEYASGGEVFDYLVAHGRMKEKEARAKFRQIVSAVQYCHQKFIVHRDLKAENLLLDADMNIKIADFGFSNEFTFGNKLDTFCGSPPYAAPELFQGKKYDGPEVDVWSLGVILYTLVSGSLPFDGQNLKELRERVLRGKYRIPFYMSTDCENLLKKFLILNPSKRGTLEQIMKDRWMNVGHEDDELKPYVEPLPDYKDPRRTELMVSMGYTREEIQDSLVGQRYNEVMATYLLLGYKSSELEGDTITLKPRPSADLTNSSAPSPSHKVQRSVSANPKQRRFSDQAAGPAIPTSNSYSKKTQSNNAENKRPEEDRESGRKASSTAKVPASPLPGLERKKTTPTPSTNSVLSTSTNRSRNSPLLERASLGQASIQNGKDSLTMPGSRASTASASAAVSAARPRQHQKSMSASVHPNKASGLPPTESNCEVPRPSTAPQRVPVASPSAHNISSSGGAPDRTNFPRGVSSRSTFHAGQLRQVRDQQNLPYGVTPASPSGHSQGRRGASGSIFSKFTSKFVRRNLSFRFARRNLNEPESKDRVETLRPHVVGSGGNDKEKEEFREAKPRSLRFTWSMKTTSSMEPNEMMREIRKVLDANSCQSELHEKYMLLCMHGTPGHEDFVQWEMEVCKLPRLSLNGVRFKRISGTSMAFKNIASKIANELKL

Chain of Mitogen-activated protein kinase kinase kinase kinase 4 (Homo sapiens) (O95819 2-1239 limits assumed): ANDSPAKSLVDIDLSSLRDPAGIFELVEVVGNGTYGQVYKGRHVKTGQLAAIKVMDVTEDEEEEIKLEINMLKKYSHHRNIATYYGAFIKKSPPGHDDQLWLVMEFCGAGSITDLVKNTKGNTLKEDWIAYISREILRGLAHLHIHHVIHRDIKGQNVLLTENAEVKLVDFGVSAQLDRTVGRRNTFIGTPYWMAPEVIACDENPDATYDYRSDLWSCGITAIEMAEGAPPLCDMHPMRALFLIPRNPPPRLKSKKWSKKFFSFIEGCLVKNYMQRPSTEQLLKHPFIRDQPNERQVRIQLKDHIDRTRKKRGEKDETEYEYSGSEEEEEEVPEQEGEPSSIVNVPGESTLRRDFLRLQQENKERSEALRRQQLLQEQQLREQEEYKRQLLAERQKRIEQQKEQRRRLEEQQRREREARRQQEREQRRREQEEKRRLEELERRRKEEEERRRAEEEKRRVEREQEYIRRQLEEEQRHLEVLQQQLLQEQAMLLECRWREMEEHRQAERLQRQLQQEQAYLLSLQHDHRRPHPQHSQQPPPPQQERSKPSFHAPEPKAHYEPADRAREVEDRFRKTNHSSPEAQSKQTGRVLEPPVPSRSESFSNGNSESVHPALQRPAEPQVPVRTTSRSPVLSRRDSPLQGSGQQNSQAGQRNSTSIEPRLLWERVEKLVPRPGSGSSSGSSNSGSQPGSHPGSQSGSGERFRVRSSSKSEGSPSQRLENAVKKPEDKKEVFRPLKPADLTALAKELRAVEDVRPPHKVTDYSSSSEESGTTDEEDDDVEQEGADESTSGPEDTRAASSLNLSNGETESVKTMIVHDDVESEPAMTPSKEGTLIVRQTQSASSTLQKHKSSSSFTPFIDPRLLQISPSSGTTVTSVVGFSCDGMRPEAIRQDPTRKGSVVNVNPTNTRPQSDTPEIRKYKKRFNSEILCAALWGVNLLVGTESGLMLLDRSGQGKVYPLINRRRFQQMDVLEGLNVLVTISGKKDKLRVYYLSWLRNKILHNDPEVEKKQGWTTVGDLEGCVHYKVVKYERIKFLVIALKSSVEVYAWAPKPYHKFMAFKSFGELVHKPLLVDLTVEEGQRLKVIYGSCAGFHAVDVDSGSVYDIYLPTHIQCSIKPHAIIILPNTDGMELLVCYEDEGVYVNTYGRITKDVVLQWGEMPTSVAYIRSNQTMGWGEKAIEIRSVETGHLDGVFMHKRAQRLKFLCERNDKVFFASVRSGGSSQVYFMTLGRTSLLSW
Chain of Tyrosine-protein kinase Lyn (Homo sapiens) (P07948 2-512 limits assumed): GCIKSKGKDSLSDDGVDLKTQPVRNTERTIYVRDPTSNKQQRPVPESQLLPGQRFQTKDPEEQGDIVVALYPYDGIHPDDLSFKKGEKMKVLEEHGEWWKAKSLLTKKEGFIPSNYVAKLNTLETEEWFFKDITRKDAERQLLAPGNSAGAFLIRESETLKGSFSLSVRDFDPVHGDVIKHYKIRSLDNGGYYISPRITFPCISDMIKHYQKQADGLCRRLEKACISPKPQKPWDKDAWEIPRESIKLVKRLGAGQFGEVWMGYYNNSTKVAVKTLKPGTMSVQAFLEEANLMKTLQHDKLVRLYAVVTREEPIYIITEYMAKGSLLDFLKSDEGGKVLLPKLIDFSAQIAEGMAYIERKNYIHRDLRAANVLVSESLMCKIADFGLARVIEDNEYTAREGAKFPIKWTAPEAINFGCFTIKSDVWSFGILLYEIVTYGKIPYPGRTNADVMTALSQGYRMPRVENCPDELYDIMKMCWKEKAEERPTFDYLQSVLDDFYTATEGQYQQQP
Chain of Glycogen synthase kinase-3 beta (Homo sapiens) (P49841 whole entry, looked up): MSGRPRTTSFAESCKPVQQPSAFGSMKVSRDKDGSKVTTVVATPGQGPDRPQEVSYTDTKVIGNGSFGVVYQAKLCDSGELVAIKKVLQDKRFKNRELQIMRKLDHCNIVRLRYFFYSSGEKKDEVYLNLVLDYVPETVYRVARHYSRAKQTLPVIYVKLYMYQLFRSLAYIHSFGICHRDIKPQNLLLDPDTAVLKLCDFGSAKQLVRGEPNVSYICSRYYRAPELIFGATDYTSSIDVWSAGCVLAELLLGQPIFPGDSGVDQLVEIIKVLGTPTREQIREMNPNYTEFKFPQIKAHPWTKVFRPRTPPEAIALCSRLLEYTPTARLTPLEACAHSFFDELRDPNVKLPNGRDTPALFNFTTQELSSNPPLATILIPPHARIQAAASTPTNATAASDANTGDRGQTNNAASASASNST

`Clc1ccc(C2(c3ccc(-c4ncnc5[nH]cnc45)cc3)CCNCC2)cc1`: the inhibition in assay [1] was determined as 3%; in assay [2], 13%.
Take `c1nc(N2CCOCC2)c2nc[nH]c2n1`: the inhibition in assay [3] came to 8%; in assay [4], 15%; in assay [5] it was 90%.
On to `NCC1CCN(c2ncnc3[nH]ccc23)CC1`, for which the inhibition was 14% in assay [6] and 12.5% in assay [7].
Consider `COC(=O)c1cnc(Nc2cnc(C#N)cn2)cc1NCC1CCNCC1`, for which, in assay [8], the inhibition was determined as 1.5%.
With `c1cnc2[nH]ccc2c1`, the inhibition in assay [9] turned out to be 31.5%.
For `NC1(Cc2ccc(Cl)cc2)CCN(c2ncnc3[nH]ccc23)CC1`, the inhibition in [10] is 0%.
